Values of other authors in US8962638B2, “Piperidine inhibitors of janus kinase 3” (Auspex Pharmaceuticals, Inc., priority 2009, dated 2015).

Columns and labels:
[1] = humans, 14C labeled CP-690550, oral

C[C@@H]1CCN(C(=O)CC#N)C[C@@H]1N(C)c1ncnc2[nH]ccc12 [CP-690550, 4-methyl-3-(methyl-7H-pyrrolo[2,3-d]pyrimidin-4-ylamino)-beta-oxo-(3R,4R)-1-piperidinepropanenitrile]
renal excretion of unchanged drug, share of clearance (in vivo): ~30% | non-renal share of clearance (via hepatic metabolism by CYP3A4/5 and CYP2C19): approximately 70% | mean terminal phase half-life of unchanged CP-690550 [1]: approximately 3.2 hours
